Reference: patent US5610063A, “cDNA for α-N-acetyl-galactosaminidase from Gallus domesticus” (Curators of the University of Missouri, priority 1995, dated 1997)
Numbering of substitutions follows the chain as printed.

Assays:
[1] = molecular target: T1, Gallus N-acetyl-α-D-galactosaminidase (Gallus gallus, UniProt Q90744); assay: Substrate specificity (relative activity); type: biochemical, Gallus domesticus; details: % of enzyme activity on the corresponding conjugate, 2.5 mM PNP conjugates, pH 3.5
T1 construct: the cDNA clone corresponds to the region of the mRNA encoding the mature polypeptide for the chicken α-N-acetyl-galactosaminidase; from tissue; host or cells: chicken liver
T1 sequence (Q90744 1-405 S162A): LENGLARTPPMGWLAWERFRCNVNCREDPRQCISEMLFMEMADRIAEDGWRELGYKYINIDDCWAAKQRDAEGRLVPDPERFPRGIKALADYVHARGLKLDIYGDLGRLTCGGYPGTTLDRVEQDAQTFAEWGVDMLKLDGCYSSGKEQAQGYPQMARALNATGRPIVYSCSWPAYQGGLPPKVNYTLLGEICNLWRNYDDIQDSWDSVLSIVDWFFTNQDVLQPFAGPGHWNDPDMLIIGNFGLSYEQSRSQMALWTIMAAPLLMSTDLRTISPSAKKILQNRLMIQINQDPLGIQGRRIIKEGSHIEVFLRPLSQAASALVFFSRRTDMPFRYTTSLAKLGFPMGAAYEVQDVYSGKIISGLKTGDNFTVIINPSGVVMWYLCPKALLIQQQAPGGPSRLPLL

[2] = substrate: CC(=O)N[C@H]1[C@@H](Oc2ccc([N+](=O)[O-])cc2)O[C@H](CO)[C@H](O)[C@@H]1O; assay: Kinetic parameters (Km, turnover number) of Gallus enzyme; type: biochemical, Gallus domesticus
Procedure: (§1) The Kms for ONP- and PNP-N-acetyl-α-D-galactosaminide were determined by varying the substrate concentration in 50 mM Na citrate+1 mg/ml BSA, pH 3.5.

[3] = substrate: CC(=O)N[C@H]1[C@@H](Oc2ccccc2[N+](=O)[O-])O[C@H](CO)[C@H](O)[C@@H]1O; assay: as above; type: biochemical, Gallus domesticus; details: other: Table III, Example 1 preparation, 50 mM Na citrate + 1 mg/ml BSA, pH 3.5, mean of six determinations, 37.0 °C
Procedure: as §1

[4] = substrate: O=[N+]([O-])c1ccc(O[C@H]2O[C@H](CO)[C@H](O)[C@H](O)[C@H]2O)cc1; assay: as above; type: biochemical, Gallus domesticus; details: other: Table III, Example 1 preparation, 50 mM Na citrate + 1 mg/ml BSA, pH 3.5, mean of six determinations, 37.0 °C
Procedure: as §1

[5] = Enzymatic activity quantitated during the purification; type: biochemical; details: Table V, improved (batch) purification; mean from three different preps
Procedure: Enzymatic activity was quantitated during the purification by measuring production of p-nitrophenol (PNP) from PNP-N-acetyl-α-D-galactosaminide or o-nitrophenol (ONP) from ONP-N-acetyl-α-D-galactosaminide. Enzyme aliquots were incubated in 200 μl of 50 mM Na citrate+1 mg/ml BSA+1.0 mM PNP-N-acetyl-α-D-galactosaminide, pH 3.5, at 37° C. The reactions were quenched with 1.0 ml of 0.25M Na2 CO3 and the OD 405 nm was measured. One unit of activity was defined as 1.0 μmole of substrate hydrolyzed per minute.

[6] = Table IV, Example 1 preparation
[7] = Table VI, improved purification (Example 2)
[8] = other: Example 2 batch preparation, pH 3.5, N=3, 37.0 °C
[9] = other: Table III, Example 1 preparation, 50 mM Na citrate + 1 mg/ml BSA, pH 3.5, mean of six determinations, 37.0 °C

With `CC(=O)N[C@H]1[C@H](Oc2ccc([N+](=O)[O-])cc2)O[C@H](CO)[C@@H](O)[C@@H]1O` [PNP-N-acetyl-β-D-glucosaminide] the “Relative Activity” value [1, 6] was < 0.08% and the “Relative Activity” value [1, 7] was < 0.08%.

In the case of `O=[N+]([O-])c1ccc(O[C@@H]2O[C@H](CO)[C@@H](O)[C@H](O)[C@H]2O)cc1` [PNP-β-D-glucopyranoside], the “Relative Activity” value [1, 6] is reported as < 0.08% and the “Relative Activity” value [1, 7] is reported as < 0.08%.

With `C[C@@H]1O[C@H](Oc2ccc([N+](=O)[O-])cc2)[C@@H](O)[C@H](O)[C@@H]1O` [PNP-β-L-fucopyranoside] the “Relative Activity” value [1, 6] was < 0.08% and the “Relative Activity” value [1, 7] was < 0.08%.

In the case of `C[C@@H]1O[C@@H](Oc2ccc([N+](=O)[O-])cc2)[C@@H](O)[C@H](O)[C@@H]1O` [PNP-α-L-fucopyranoside], the “Relative Activity” value [1, 6] is reported as < 0.08% and the “Relative Activity” value [1, 7] is reported as < 0.08%.

For `O=[N+]([O-])c1ccc(O[C@@H]2O[C@H](CO)[C@H](O)[C@H](O)[C@H]2O)cc1` [PNP-β-D-galactopyranoside], the “Relative Activity” value [1, 6] was < 0.08% and the “Relative Activity” value [1, 7] was < 0.08%.

With `O=[N+]([O-])c1ccc(O[C@H]2O[C@H](CO)[C@@H](O)[C@H](O)[C@H]2O)cc1` [PNP-α-D-glucopyranoside] the “Relative Activity” value [1, 6] was < 0.08% and the “Relative Activity” value [1, 7] was < 0.08%.

In the case of `CC(=O)N[C@H]1[C@H](Oc2ccc([N+](=O)[O-])cc2)O[C@H](CO)[C@H](O)[C@@H]1O` [PNP-N-acetyl-β-D-galactosaminide], the “Relative Activity” value [1, 6] is reported as < 0.08% and the “Relative Activity” value [1, 7] is reported as < 0.08%.

For `CC(=O)NC1C(O)CC(Oc2ccc3c(C)cc(=O)oc3c2)(C(=O)O)OC1C(O)C(O)CO` (stereo not drawn) [4-MU-N-acetyl-α-neuraminic acid], the “Relative Activity” value [1, 6] was < 0.01% and the “Relative Activity” value [1, 7] was < 0.01%.

In the case of `O=[N+]([O-])c1ccc(O[C@@H]2OC[C@H](O)[C@H](O)[C@H]2O)cc1` [PNP-α-L-arabinopyranoside], the “Relative Activity” value [1, 6] is reported as < 0.08% and the “Relative Activity” value [1, 7] is reported as < 0.08%.

In the case of `CC(=O)N[C@H]1[C@@H](Oc2ccc([N+](=O)[O-])cc2)O[C@H](CO)[C@@H](O)[C@@H]1O` [PNP-N-acetyl-α-D-glucosaminide], the “Relative Activity” value [1, 6] is reported as < 0.08% and the “Relative Activity” value [1, 7] is reported as < 0.08%.

For `Cc1cc(=O)oc2cc(O[C@H]3O[C@H](CO)[C@H](O)[C@H](O)[C@H]3O)ccc12` [4-MU-α-D-galactopyranoside], the “Relative Activity” value [1, 6] was 100.00% and the “Relative Activity” value [1, 7] was 100.00%.

In the case of `CC(=O)N[C@H]1[C@@H](Oc2ccc([N+](=O)[O-])cc2)O[C@H](CO)[C@H](O)[C@@H]1O` [PNP-N-acetyl-α-D-galactosaminide], the “Relative Activity” value [1, 6] is reported as 100.00% and the “Relative Activity” value [1, 7] is reported as 100.00%.

B1: Gallus N-acetyl-α-D-galactosaminidase (Gallus gallus) (protein)
chain: T1 sequence (Q90744 1-405 S162A)
notes: the cDNA clone corresponds to the region of the mRNA encoding the mature polypeptide for the chicken α-N-acetyl-galactosaminidase; from tissue; host or cells: chicken liver
In the case of B1, the Km [2, 8] is reported as 0.86, S.D.=0.03 mM, the kcat [2, 8] is reported as 3318, S.D.=118.5 moles substrate/mole enzyme/minute and the Km [2, 9] is reported as 1190 µM. For the same molecule, the kcat [2, 9] was 2370 Moles of substrate hydrolyzed per mole of enzyme per minute, the Km [3] was 2400 µM and the kcat [3] was 637 Moles of substrate hydrolyzed per mole of enzyme per minute. For the same molecule, the Km [4] was 10700 µM and the kcat [4] was 201 Moles of substrate hydrolyzed per mole of enzyme per minute.

B2: Affinity Concentrate: purified α-N-acetyl-galactosaminidase after affinity column and concentration (Example 2) (protein, UniProt Q90744 1-405, looked up)
Alpha-N-acetylgalactosaminidas …: T1 sequence (Q90744 1-405 S162A) with A162S
In the case of B2, the “Specific Activity” value [5] is reported as 71.03 µmol/mg/min.
